Data: ChEMBL document CHEMBL1130376, “Effects of taxoids from Taxus cuspidata on microtubule depolymerization and vincristine accumulation in MDR cells” (Bioorg Med Chem Lett, 1997)
In brackets after ≈: the same amount, converted by molar mass.

What was measured:
[1] = Cytotoxicity against human epidermoid carcinoma KB cells; type: functional, cell-based
L1210 = test: Cytotoxicity against murine leukemia L1210 cells; type: functional, cell-based, Mus musculus; conditions: Mus musculus, L1210; read-out: IC50
[2] = Vincristine (VCR) accumulation in multidrug resistant human ovarian cancer 2780 AD cells at a concentration 1 ug/mL; type: functional
[3] = Vincristine (VCR) accumulation in multidrug resistant human ovarian cancer 2780 AD cells at a concentration 10 ug/mL; type: functional

Compound | IC50 [1] [µg/mL] | IC50 (L1210) [µg/mL] | vincristine accumulation (% of control) [2] [%] | vincristine accumulation (% of control) [3] [%]
CC(=O)O[C@H]1C[C@H]2[C@@H](OC(C)=O)/C=C3\C[C@](C)(C(=O)[C@H](O)C(=C1C)C2(C)C)[C@@H](OC(C)=O)C[C@@H]3OC(=O)/C=C/c1ccccc1 [TAXUSPINE B] | > 10 | > 10 | 219 | 713
C=C1[C@@H](OC(=O)CC(c2ccccc2)N(C)C)C[C@H](OC(C)=O)[C@]2(C)[C@@H]1C[C@@H]1C[C@H](OC(C)=O)C(C)=C([C@@H](OC(C)=O)[C@@H]2OC(C)=O)C1(C)C (stereo partly specified) | > 10 | 7.2 (≈ 10.3 µM) | 233 | 841
CC(=O)O[C@@]12CO[C@@H]1C[C@@H](O)[C@@]1(C)C(=O)[C@H](O)C3=C(C)[C@@H](OC(=O)[C@H](O)C(NC(=O)c4ccccc4)c4ccccc4)C[C@@](O)([C@@H](OC(=O)c4ccccc4)[C@H]21)C3(C)C (stereo partly specified) | 0.013 (≈ 0.016 µM) | 0.71 (≈ 0.875 µM) | 192 | 218
C=C1[C@@H](O)C[C@H](OC(C)=O)[C@@]2(C)[C@@H](OC(C)=O)[C@H](OC(C)=O)C3=C(C)C(=O)C[C@@H]([C@@H](OC(C)=O)[C@H]12)C3(C)C | > 10 | > 10 | 141 | 257
C=C1[C@@H](O)CC[C@@]2(C)[C@@H](OC(C)=O)[C@H](OC(C)=O)C3=C(C)C(=O)C[C@@H]([C@@H](OC(C)=O)[C@H]12)C3(C)C [TAXININE A] | > 10 | 8.9 (≈ 18.7 µM) | 153 | 461
CC(=O)O[C@H]1C[C@@]2(O)[C@@H](OC(C)=O)[C@@H]3[C@@]4(CO4)[C@@H](OC(C)=O)C[C@H](OC(C)=O)[C@@]3(C)[C@@H](OC(C)=O)[C@H](OC(C)=O)C(=C1C)C2(C)C | > 10 | > 10 | 119 | 135
C=C1[C@@H](OC(=O)CC(c2ccccc2)N(C)C)CC[C@@]2(C)[C@@H](OC(C)=O)[C@H](OC(C)=O)C3=C(C)C(=O)C[C@@H]([C@@H](OC(C)=O)[C@H]12)C3(C)C (stereo partly specified) | > 10 | > 10 | 177 | 704
C=C1[C@@H](OC(=O)/C=C/c2ccccc2)CC[C@@]2(C)[C@@H](OC(C)=O)[C@H](OC(C)=O)C3=C(C)C(=O)C[C@@](O)([C@@H](OC(C)=O)[C@H]12)C3(C)C | 6.9 (≈ 11.1 µM) | 4.6 (≈ 7.39 µM) | 167 | 436
C=C1[C@@H](O)C[C@H](OC(C)=O)[C@@]2(COC(=O)c3ccccc3)[C@@H](OC(C)=O)[C@H](OC(C)=O)[C@]3(O)[C@@]4(C)CO[C@]3(C)C(=O)C[C@H]4[C@@H](OC(C)=O)[C@H]12 [TAXININ M] | 9.4 (≈ 13.7 µM) | > 10 | 115 | 169
C=C1[C@@H](OC(=O)/C=C/c2ccccc2)C[C@H](OC(C)=O)[C@@]2(CO)[C@@H](OC(C)=O)[C@H](OC(C)=O)[C@]3(O)[C@@]4(C)CO[C@]3(C)C(=O)C[C@H]4[C@@H](OC(C)=O)[C@H]12 [TAXUSPINE S] | 0.26 (≈ 0.365 µM) | 3.8 (≈ 5.33 µM) | 136 | 190
C/C=C(\C)C(=O)O[C@@H]1C2=C(C)[C@@H](O)C[C@@]2(C(C)(C)O)[C@@H](OC(C)=O)[C@@H]2[C@]3(OC(C)=O)CO[C@@H]3C[C@H](OC(C)=O)[C@@]2(C)[C@H]1OC(C)=O | 0.3 (≈ 0.461 µM) | 4 (≈ 6.15 µM) | 145 | 206
C=C1[C@@H](OC(=O)/C=C/c2ccccc2)C[C@H](OC(C)=O)[C@]2(C)[C@@H]1C[C@]1(C(C)(C)O)C[C@H](OC(C)=O)C(C)=C1[C@@H](O)[C@@H]2OC(C)=O | 5.8 (≈ 9.28 µM) | 1.2 (≈ 1.92 µM) | 176 | 584
C=C1[C@@H](OC(=O)/C=C/c2ccccc2)CC[C@]2(C)[C@@H]1C[C@@H]1C[C@H](OC(C)=O)C(C)=C([C@@H](OC(C)=O)[C@@H]2OC(C)=O)C1(C)C | 8.2 (≈ 13.8 µM) | 9.5 (≈ 16 µM) | 102 | 517
C=C1[C@@H](O)CC[C@@]2(C)[C@@H](OC(C)=O)[C@H](OC(C)=O)C3=C(C)C(=O)C[C@@](O)([C@@H](OC(C)=O)[C@H]12)C3(C)C | 0.6 (≈ 1.22 µM) | 6.2 (≈ 12.6 µM) | 152 | 216
